Source: patent publication US4302458A, “Phthalidyl-isoquinoline derivatives” (Laborec Laboratoire de Recherches Biologiques, priority 1979, dated 1981)

Key:
[1] = Acute toxicity (LD 50), oral route, mice; conditions: mouse, in vivo
Description: (§1) The toxicity was determined in the conventional manner.

mice = conditions: mouse, in vivo
Description: as §1

histidine decarboxylase = assay: Histidine decarboxylase activity of guinea-pig kidneys after in vivo administration; conditions: for Activity expressed in % inhibition of the enzyme: guinea-pig renal enzyme, sacrificed five hours after administration, vs control animals
Source text: The activity of the compound 458 L was compared with that of tritoqualine, which is, to the Applicants' knowledge, the only product used therapeutically for this objective. The technique for measuring the histadine decarboxylase activity of guinea-pig kidneys has been described by B. Kosmicki et al (J. Pharmacol. Paris 1974-5-3-331-342). The guinea-pigs were sacrificed five hours after administering the substances under investigation. The percentage reduction in the activity of the renal enzyme of the treated animals was determined with respect to control animals.

Row | Structure (SMILES) | LD50 [1] [mg/kg] | chronic toxicity (tolerance) (mice) | Activity expressed in % inhibition of the enzyme (histidine decarboxylase; dosage 10 mg/kg) [%] | Activity expressed in % inhibition of the enzyme (histidine decarboxylase; dosage 20 mg/kg) [%] | Activity expressed in % inhibition of the enzyme (histidine decarboxylase; dosage 40 mg/kg) [%] | Activity expressed in % inhibition of the enzyme (histidine decarboxylase; dosage 60 mg/kg) [%] | in vivo inhibition of histidine decarboxylase (in words) (histidine decarboxylase; in vivo)
1 | CCOc1c(N)c2c(c(OCC)c1OCC)C(C1c3c(cc(OC)c(OC)c3OC)CCN1C)OC2=O (centres unmarked) [458 L, 2-methyl-6,7,8-trimethoxy-1[4,5,6-triethoxy-7-amino-3-phthalidyl]-1,2,3,4-tetrahydro-isoquinoline] | ~6000 | well tolerated | 14 | 21 | 31 | 41 | inhibiting in vivo the action of the enzyme histidine decarboxylase
2 | CCOc1c(N)c2c(c(OCC)c1OCC)C(C1c3c(cc4c(c3OC)OCO4)CCN1C)OC2=O (centres unmarked) [Tritoqualine, tritoqualine, reference compound] | – | – | 10 | 20 | 20 | 22 | –
